Experimental data from patent US12576167B2, “Gadolinium-based compound, method for producing same, and MRI contrast agent containing same” (KYUNGPOOK NATIONAL UNIVERSITY INDUSTRY-ACADEMIC COOPERATION …, priority 2020, dated 2026).

How the values were obtained:
[1] = molecular target: amyloid beta polymer (oligomeric Aβ) (Homo sapiens, UniProt P05067); assay: Phantom test for targeting ability toward amyloid beta polymer, 9.4 T MR; type: binding; conditions: amyloid beta polymer incubated with contrast agent at 37° C. for 24 hours, washed pellet, FIG. 7
Method: HFIP (221.5 μl) was added to amyloid beta (1 mg, 1 mM) to produce a mixture which in turn was shaken for 1 hour at room temperature using a shaker to remove preaggregation. Next, the amyloid beta from which the pre-aggregation was removed was dried. Then, DMSO (221.5 μl) was added thereto to adjust a concentration thereof to 1 mM. Then, a suspension thereof was produced using a mixer and a sonicator, and PBS (1×, pH 7.4, 878.5 μl) was added to the suspension to adjust a concentration of the suspension to 0.2 mM. Thereafter, the suspension was subjected to incubation for 4 days at 37° C. using a shaker. Then, amyloid beta polymer (oligomeric Aβ) that has been polymerized was dispensed by 200 μl. Then, a further mixed solution in which the compound Gd-DO3A-Ga was dissolved in PBS at a concentration of 2 mM was added thereto at 20 μl amount. A further mixed solution in which the commercial contrast agent (Gadovist®) was dissolved in PBS at a concentration of 2 mM was added thereto at 20 μl amount. Then, each of two resulting mixtures was incubated at 37° C. for 24 hours using a shaker. After completion of the incubation, a supernatant was removed therefrom via centrifugation, and then the amyloid beta polymer was washed with PBS, and then 200 μl of PBS:DMSO=9:1 solution was added to a pellet thereof to prepare MRI phantom samples. […]

[2] = Measurement of relaxivity (r1, r2), phantom in 3 T MRI; type: physicochemical; conditions: 0.0625-1 mM in tertiary distilled water, linear regression, in mM-1 s-1 (unit assumed)
Method: Relaxivity (r1, r2) of each of Gd-DO3A-Ga synthesized using the method according to Present Example 2, and Gadovist® and Dotarem® as commercial cyclic contrast agents as comparative groups.
Specifically, a phantom was prepared by diluting the gadolinium complex to 5 concentrations (0.0625, 0.125, 0.25, 0.5, 1 mM) using tertiary distilled water, and then T1 and T2 relaxation times thereof were measured in 3 T MRI. Thus, R (relaxivity=1/T) thereof at each of the concentrations was calculated and a result of the relaxivity of the gadolinium complex was obtained via linear regression analysis. (See following Table 1 and FIG. 5)

Chain of amyloid beta polymer (oligomeric Aβ) (P05067 672-713 limits assumed): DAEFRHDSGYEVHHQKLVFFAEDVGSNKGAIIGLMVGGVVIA

| MR signal intensity (contrast enhancement effect) of phantom versus control incubated only with amyloid beta polymer [1] | relaxivity r1 [2] | relaxivity r2 [2] | SMILES |
| --- | --- | --- | --- |
| no significant difference | 3.85 ± 0.09 | 4.87 ± 0.11 | O=C([O-])CN1CCN(CC(=O)[O-])CCN([C@H](CO)[C@H](O)CO)CCN(CC(=O)[O-])CC1.[Gd+3] (racemic) [Gadovist ®] |
|  | 3.40 ± 0.07 | 3.88 ± 0.16 | CNC[C@H](O)[C@@H](O)[C@H](O)[C@H](O)CO.O=C([O-])CN1CCN(CC(=O)[O-])CCN(CC(=O)O)CCN(CC(=O)[O-])CC1.[Gd+3] [Dotarem ®] |
